pIC50: −log10 of the molar value.
Target: T1, human vasopressin V1a receptor subtype (Homo sapiens, UniProt P37288)
T1 construct: host or cells: CHO cells; pZeoSV vector for the Thibonnier line
Experiment: Vasopressin binding in CHO cell membranes expressing human vasopressin V1a subtype receptors ([3H]Manning ligand radioligand binding)
Conditions: for inhibition at 0.1 µM: @ 100 nM; for pIC50: value printed in parentheses
Excerpt: Vasopressin Binding in Chinese Hamster Ovary Cell Membranes Expressing Human Vasopressin V1a Subtype Receptors
Chinese hamster ovary cells (CHO cells) stably transfected with the human vasopressin V1a subtype receptors were either obtained from BioSignal Inc., 1744 rue Williams, Montreal, Quebec, Canada or obtained from M. Thibonnier, Case Western Reserve University School of Medicine, Cleveland, Ohio.
A. Passaging and Amplification of Cells
CHO cells transfected with the human vasopressin V1a subtype receptors obtained from M. Thibonnier (pZeoSV vector) are allowed to grow to confluency (approx. >90%) in T-150 flasks under sterile conditions, in a cell culture medium of F-12 Nutrient Mixture (HAM) with L-glutamine (Gibco Cat. #11765-054) containing 15 mM HEPES (Gibco Cat. #15630-080), 1% antibiotic/antimycotic (add 5 mL 100×, Gibco Cat. #15240-062 per 500 mL F-12), 250 μg/mL Zeocin (add 1.25 mL of 100 mg/mL Invitrogen R-250-01 per 500 mL F-12) and 10% Fetal Bovine Serum (Qualified, heat inactivated, Gibco Cat. #16140-063). The medium is removed by aspiration and the cells are washed with 10 mL of Hank's Balanced Salt solution (Gibco Cat. #14175-095). The salt solution is removed by aspiration and the cells are trypsinized with 5 mL of trypsin-EDTA (0.05% trypsin, 0.53 mM EDTA-4Na, Gibco Cat. #25300-070) for 1 min. The trypsin is removed by aspiration and the cells dislodged by tapping. Cell Culture medium (e.g. 30 mL for 1:30 split) is immediately added and mixed well to inactivate trypsin. 1 mL of detached cells is added to new culture flasks containing fresh cell culture medium (e.g., into 25 mL per T-150 flask), and mixed gently. The cells are incubated at 37° C. in 5% CO2. The medium is changed at 3 to 4 days interval (or as appropriate). The cells grow to confluency (approx. >75%-95%) within 7-8 days. All steps are done under sterile conditions.
The cells are washed twice gently with Hank's Balanced Salt solution (e.g,. use 10 mL per T-150 flask). The excess is removed and the cells are bathed for 15-30 min. in an enzyme-free Cell Dissociation Buffer (e.g. use 8 mL Hank's Based, Gibco Cat. #13150-016 per T-150 flask) until the cells are loosened. The contents are transferred to centrifuge tubes (50 mL) kept in an ice bath. All subsequent steps are done at 4° C. The tubes are centrifuged at 300×g for 15 min (1380 rpm on SORVAL, Model RT6000D, using the rotor for 50 mL tubes). The supernatant is discarded and the cells suspended in homogenizing buffer(10 mM Tris-HCl containing 0.25 M sucrose and 1 mM EDTA, pH 7.4) ensuring that the volume of the buffer is about ten times the volume of the cell pellet. The cells are pooled into a centrifuge tube (50 mL) and homogenized with Polytron at setting 6 for 10 sec. The homogenate is transferred into a Potter-Elvjehm homogenizer and homogenized with 3 strokes. The homogenate is centrifuged at 1500×g for 10 min at 4° C. (3100 rpm using SORVAL, model RT6000D, using the rotor for 50 mL tubes). The pellet is discarded. The supernatant is centrifuged at 100,000×g for 60 min. at 4° C. (Beckman L8-80M ultracentrifuge; spin at 37,500 rpm with rotor type 70 Ti for 50 mL tubes; 38,000 rpm with type 80Ti for 15 mL tubes; or 35,800 rpm with rotor type 45Ti). The supernantant is discarded and the pellet suspended in 3 to 4 mL of Tris buffer (50 mM TRIS—HCl, pH 7.4). The protein content is estimated by the Bradford or Lowry method. The volume of the membrane suspension is adjusted with the membrane buffer (50 mM Tris-HCl containing 0.1% BSA and 0.1 mM PMSF) to give 3.0 mg/mL (or as appropriate) of protein. The membranes are aliquoted and stored at −70° C.
C. Radioligand Binding Assay […]

T1 sequence (P37288 whole entry): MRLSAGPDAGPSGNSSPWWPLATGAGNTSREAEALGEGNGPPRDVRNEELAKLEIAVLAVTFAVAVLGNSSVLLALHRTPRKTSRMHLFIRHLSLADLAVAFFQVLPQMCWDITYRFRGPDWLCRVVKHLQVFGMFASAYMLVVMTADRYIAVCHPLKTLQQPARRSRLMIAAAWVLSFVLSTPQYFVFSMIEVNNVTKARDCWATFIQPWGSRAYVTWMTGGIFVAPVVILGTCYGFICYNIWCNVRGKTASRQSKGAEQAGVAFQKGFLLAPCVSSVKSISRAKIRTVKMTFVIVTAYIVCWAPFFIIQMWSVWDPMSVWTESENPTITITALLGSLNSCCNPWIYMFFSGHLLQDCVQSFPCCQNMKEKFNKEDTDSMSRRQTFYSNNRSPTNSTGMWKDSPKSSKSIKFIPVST

| inhibition at 0.1 µM [%] | pIC50 | SMILES |
| --- | --- | --- |
| 0 | – | COc1cc2c(cc1OC)N(C(=O)c1ccc(-c3ccccc3C(F)(F)F)c(C)c1)Cc1ccc(C(=O)N(C)CC(O)CO)n1C2 (stereo not drawn) [Example 18, N-(2,3-Dihydroxypropyl)-7,8-dimethoxy-N-methyl-10-{[2-methyl-2′-trifluoromethyl-[1,1′-biphenyl]-4-yl]carbonyl}-10,11-dihydro-5H-pyrrolo[2,1-c][1,4]benzodiazepine-3-carboxamide] |
| 1 | – | COc1cc2c(cc1OC)N(C(=O)c1ccc(-c3ccccc3C(F)(F)F)c(C)c1)Cc1ccc(C(=O)N(CCO)CCO)n1C2 [Example 19, N,N-Bis(2-Hydroxyethyl)-7,8-dimethoxy-10-{[2-methyl-2′-trifluoromethyl-[1,1′-biphenyl]-4-yl]carbonyl}-10,11-dihydro-5H-pyrrolo[2,1-c][1,4]benzodiazepine-3-carboxamide] |
| – | 5.51 | COc1cc(-c2ccccc2C(F)(F)F)c(Cl)cc1C(=O)N1Cc2ccc(C(=O)N(C)C[C@H](O)[C@@H](O)[C@H](O)[C@H](O)CO)n2Cc2ccccc21 [Example 20, 10-{[6-Chloro-3-methoxy-2′-trifluoromethyl-[1,1′-biphenyl]-4-yl]carbonyl}-N-methyl-N-[(2S,3R,4R,5R)-2,3,4,5,6-pentahydroxyhexyl]-10,11-dihydro-5H-pyrrolo[2,1-c][1,4]benzodiazepine-3-carboxamide] |
| – | 6.42 | COc1cc(C(=O)N2Cc3ccc(C(=O)N(C)CC(O)CO)n3Cc3ccccc32)ccc1-c1ccccc1C(F)(F)F (stereo not drawn) [Example 21, N-(2,3-Dihydroxypropyl)-10-{[2-methoxy-2′-trifluoromethyl-[1,1′-biphenyl]-4-yl]carbonyl}-N-methyl-10,11-dihydro-5H-pyrrolo[2,1-c][1,4]benzodiazepine-3-carboxamide] |
| – | 6.64 | COc1cc(C(=O)N2Cc3ccc(C(=O)N(C)CC(O)CN(C)C)n3Cc3ccccc32)ccc1-c1ccccc1C(F)(F)F (stereo not drawn) [Example 22, N-[(3-Dimethylamino)-2-hydroxy-propyl]-10-{[2-methoxy-2′-trifluoromethyl-[1,1′-biphenyl]-4-yl]carbonyl}-N-methyl-10,11-dihydro-5H-pyrrolo[2,1-c][1,4]benzodiazepine-3-carboxamide] |
| 5 | – | O=C(c1ccc2n1Cc1ccccc1N(C(=O)c1ccc(-c3cccc4ccccc34)cc1Cl)C2)N1CCN(CCO)CC1 [Example 25, 2-{4-[10-{[2-Chloro-4-(naphthalen-1-yl)phenyl]carbonyl}-(10,11-dihydro-5H-pyrrolo[2,1-c][1,4]benzodiazepin-3-yl)carbonyl]piperazine-1-yl}-1-hydroxyethane] |
| – | 6.86 | Cc1ccc(-c2ccc(C(=O)N3Cc4ccc(C(=O)N(C)CC(O)CO)n4Cc4ccccc43)cc2)c2ccccc12 (stereo not drawn) [Example 26, 10-{[4-(4-Methyl-naphthalen-1-yl)phenyl]carbonyl}-10,11-dihydro-5H-pyrrolo[2,1-c][1,4]benzodiazepine-3-carboxylic acid (2,3-dihydroxy-propyl)-N-methylamide] |
| 6 | – | COc1cc2c(cc1OC)N(C(=O)c1ccc(-c3ccccc3OC)c(C)c1)Cc1ccc(C(=O)N(C)C[C@H](O)[C@@H](O)[C@H](O)[C@H](O)CO)n1C2 [Example 37, 7,8-Dimethoxy-10-[(2′-methoxy-2-methyl-[1,1′-biphenyl]-4-yl)carbonyl]-10,11-dihydro-5H-pyrrolo[2,1-c][1,4]benzodiazepine-3-carboxylic acid methyl-[(2S, 3R, 4R, 5R)-2,3,4,5,6-pentahydroxy-hexyl)-amide] |
| – | 6.12 | COc1cc(-c2ccccc2C)c(Cl)cc1C(=O)N1Cc2ccc(C(=O)N3CCN(CCO)CC3)n2Cc2ccccc21 [Example 39, {10-[(6-Chloro-3-methoxy-2′-methyl[1,1′-biphenyl]-4-yl)carbonyl]-10,11-dihydro-5H-pyrrolo[2,1-c][1,4]benzodiazepin-3-yl}[4-(2-hydroxyethyl)-1-piperazinyl]methanone] |
| 13 | – | COc1ccccc1-c1ccc(C(=O)N2Cc3ccc(C(=O)N4CCN(CCO)CC4)n3Cc3ccccc32)cc1C [Example 40, [4-(2-Hydroxyethyl)-1-piperazinyl]{10-[(2′-methoxy-2-methyl[1,1′-biphenyl]-4yl)carbonyl]-10,11-dihydro-5H-pyrrolo[2,1-c][1,4]benzodiazepin-3-yl}methanone] |
| 12 | – | COc1cc(C(=O)N2Cc3ccc(C(=O)N4CCN(CCO)CC4)n3Cc3ccccc32)ccc1-c1cccc2ccccc12 [Example 41, [4-(2-Hydroxyethyl)-1-piperazinyl]{10-[3-methoxy-4-(1-naphthyl)benzoyl]-10,11-dihydro-5H-pyrrolo[2,1-c][1,4]benzodiazepin-3-yl}methanone] |
| 49 | – | COc1cc(C(=O)N2Cc3ccc(C(=O)N4CCN(CCO)CC4)n3Cc3ccccc32)ccc1-c1ccccc1C [Example 42, [4-(2-Hydroxyethyl)-1-piperazinyl]{10-[(2-methoxy-2′-methyl[1,1′-biphenyl]-4yl)carbonyl]-10,11-dihydro-5H-pyrrolo[2,1-c][1,4]benzodiazepin-3-yl}methanone] |
| 1 | – | COc1ccccc1-c1ccc(C(=O)N2Cc3ccc(C(=O)N4CCN(CCO)CC4)n3Cc3ccccc32)cc1OC [Example 43, {10-[(2,2′-Dimethoxy[1,1′-biphenyl]-4-yl)carbonyl]-10,11-dihydro-5H-pyrrolo[2,1-c][1,4]benzodiazepin-3-yl}[4-(2-hydroxyethyl)-1-piperazinyl]methanone] |
| 17 | – | COc1cccc(-c2ccc(C(=O)N3Cc4ccc(C(=O)N5CCN(CCO)CC5)n4Cc4ccccc43)cc2C)c1 [Example 44, [4-(2-Hydroxyethyl)-1-piperazinyl]{10-[(3′-methoxy-2-methyl[1,1′-biphenyl]-4yl)carbonyl]-10,11-dihydro-5H-pyrrolo[2,1-c][1,4]benzodiazepin-3-yl}methanone] |
| 57 | – | Cc1ccccc1-c1ccc(C(=O)N2Cc3ccc(C(=O)N4CCN(CCO)CC4)n3Cc3ccccc32)cc1 [Example 45, [4-(2-Hydroxyethyl)-1-piperazinyl]{10-[(2′-methyl[1,1′-biphenyl]-4-yl)carbonyl]-10,11-dihydro-5H-pyrrolo[2,1-c][1,4]benzodiazepin-3-yl}methanone] |
| 53 | – | Cc1ccccc1-c1ccc(C(=O)N2Cc3ccc(C(=O)N4CCN(CCO)CC4)n3Cc3ccccc32)cc1C [Example 46, {10-[(2,2′-Dimethyl[1,1′-biphenyl]-4-yl)carbonyl]-10,11-dihydro-5H-pyrrolo[2,1-c][1,4]benzodiazepin-3-yl}[4-(2-hydroxyethyl)-1-piperazinyl]methanone] |
| 12 | – | COc1ccccc1-c1ccc(C(=O)N2Cc3ccc(C(=O)N4CCN(CCO)CC4)n3Cc3ccccc32)cc1 [Example 47, [4-(2-Hydroxyethyl)-1-piperazinyl]{10-[(2′-methoxy[1,1′-biphenyl]-4-yl)carbonyl]-10,11-dihydro-5H-pyrrolo[2,1-c][1,4]benzodiazepin-3-yl}methanone] |
| 7 | – | Cc1cc(C(=O)N2Cc3ccc(C(=O)N4CCN(CCO)CC4)n3Cc3ccccc32)ccc1-c1ccccc1C(F)(F)F [Example 48, [4-(2-Hydroxyethyl)-1-piperazinyl](10-{[2-methyl-2′-(trifluoromethyl)[1,1′-biphenyl]-4-yl)carbonyl}-10,11-dihydro-5H-pyrrolo[2,1-c][1,4]benzodiazepin-3-yl)methanone] |

From patent US6900200B2, “Tricyclic hydroxy carboxamides and derivatives thereof tocolytic oxytocin receptor antagonists” (Wyeth, priority 2001, dated 2005)
